In the supplement of paper PMC11208160:

Experiment: recombinant barcode read abundance after kanamycin selection (control-corrected) (log10(CPM+1)); higher = more efficient recombination; sequences stand for … in AGTGCAGAGAAAATCGGCCAGTTTTCTCTGCCTGCAGTCCGCATGCCGT…ATTTATGCAGCGGACTGCCTTTCTCCCAAAGTGATAAACCGGACAGTATCATGGACCGGTTTTCCCGGTAATCCGTATTTGCAAGGTTGGTTTCACT; site = the 11-nt target
Experimental: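 Same pooled E. coli target screen (IS621 bridge recombinase, kanamycin selection, control-corrected CPM, mean of 2 biological replicates). Here the two core-binding nucleotides of the LTG and RTG of the bridge RNA target-binding loop are mutated. Target and donor CT cores are held constant, and the other 9 guide positions match the target. The target is read from the library oligo sequence. Molecule = full bridge RNA written as DNA: nt 1-80 from the library oligo, rest WT scaffold.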

Row | Sequence | recombinant barcode read abundance (log10)
1 | AGGCGGTACTGGGTTCTAACCTGTTGCTTGT [AGGCGGTCTAA_LTGcore_AC_RTGcore_AC] (site AGGCGGTCTAA) (LTG core: AC, RTG core: AC) | 0.166
2 | AGGCGGTCATGGGTTCTAACCTGTTGCTTAG [AGGCGGTCTAA_LTGcore_CA_RTGcore_CT] (site AGGCGGTCTAA) (LTG core: CA, RTG core: CT) | 0.322
3 | AGGCGGTCGTGGGTTCTAACCTGTTGCTTCG [AGGCGGTCTAA_LTGcore_CG_RTGcore_CG] (site AGGCGGTCTAA) (LTG core: CG, RTG core: CG) | 0.228
4 | AGGCGGTCTTGGGTTCTAACCTGTTGCTTAA [AGGCGGTCTAA_LTGcore_CT_RTGcore_TT] (site AGGCGGTCTAA) (LTG core: CT, RTG core: TT) | 0.0737
5 | AGGCGGTCTTGGGTTCTAACCTGTTGCTTGA [AGGCGGTCTAA_LTGcore_CT_RTGcore_TC] (site AGGCGGTCTAA) (LTG core: CT, RTG core: TC) | 0.107
6 | AGGCGGTCTTGGGTTCTAACCTGTTGCTTGC [AGGCGGTCTAA_LTGcore_CT_RTGcore_GC] (site AGGCGGTCTAA) (LTG core: CT, RTG core: GC) | 0.784
7 | AGGCGGTCTTGGGTTCTAACCTGTTGCTTGG [AGGCGGTCTAA_LTGcore_CT_RTGcore_CC] (site AGGCGGTCTAA) (LTG core: CT, RTG core: CC) | 0.244
8 | AGGCGGTGATGGGTTCTAACCTGTTGCTTAG [AGGCGGTCTAA_LTGcore_GA_RTGcore_CT] (site AGGCGGTCTAA) (LTG core: GA, RTG core: CT) | 0.09
9 | AGGCGGTGATGGGTTCTAACCTGTTGCTTTC [AGGCGGTCTAA_LTGcore_GA_RTGcore_GA] (site AGGCGGTCTAA) (LTG core: GA, RTG core: GA) | 0.101
10 | AGTCTTAAATGGGTTCTAACCTGTTGCCAAG [AGTCTTACTTG_LTGcore_AA_RTGcore_CT] (site AGTCTTACTTG) (LTG core: AA, RTG core: CT) | 0.182
11 | AGTCTTACTTGGGTTCTAACCTGTTGCCAAC [AGTCTTACTTG_LTGcore_CT_RTGcore_GT] (site AGTCTTACTTG) (LTG core: CT, RTG core: GT) | 0.0371
12 | AGTCTTACTTGGGTTCTAACCTGTTGCCACT [AGTCTTACTTG_LTGcore_CT_RTGcore_AG] (site AGTCTTACTTG) (LTG core: CT, RTG core: AG) | 0.0729
13 | AGTCTTACTTGGGTTCTAACCTGTTGCCAGT [AGTCTTACTTG_LTGcore_CT_RTGcore_AC] (site AGTCTTACTTG) (LTG core: CT, RTG core: AC) | 0.0396
14 | AGTCTTAGTTGGGTTCTAACCTGTTGCCAAC [AGTCTTACTTG_LTGcore_GT_RTGcore_GT] (site AGTCTTACTTG) (LTG core: GT, RTG core: GT) | 0
15 | AGTCTTATGTGGGTTCTAACCTGTTGCCAAG [AGTCTTACTTG_LTGcore_TG_RTGcore_CT] (site AGTCTTACTTG) (LTG core: TG, RTG core: CT) | 0.0537
16 | AGTCTTATGTGGGTTCTAACCTGTTGCCACA [AGTCTTACTTG_LTGcore_TG_RTGcore_TG] (site AGTCTTACTTG) (LTG core: TG, RTG core: TG) | 0.0473
17 | ATGCTTTAGTGGGTTCTAACCTGTTGCCTCT [ATGCTTTCTAG_LTGcore_AG_RTGcore_AG] (site ATGCTTTCTAG) (LTG core: AG, RTG core: AG) | 0.0908
18 | ATGCTTTATTGGGTTCTAACCTGTTGCCTAT [ATGCTTTCTAG_LTGcore_AT_RTGcore_AT] (site ATGCTTTCTAG) (LTG core: AT, RTG core: AT) | 0.153
19 | ATGCTTTCATGGGTTCTAACCTGTTGCCTAG [ATGCTTTCTAG_LTGcore_CA_RTGcore_CT] (site ATGCTTTCTAG) (LTG core: CA, RTG core: CT) | 0.0483
20 | ATGCTTTCTTGGGTTCTAACCTGTTGCCTCG [ATGCTTTCTAG_LTGcore_CT_RTGcore_CG] (site ATGCTTTCTAG) (LTG core: CT, RTG core: CG) | 0.21
21 | ATGCTTTCTTGGGTTCTAACCTGTTGCCTTA [ATGCTTTCTAG_LTGcore_CT_RTGcore_TA] (site ATGCTTTCTAG) (LTG core: CT, RTG core: TA) | 0.0193
22 | ATGCTTTCTTGGGTTCTAACCTGTTGCCTTT [ATGCTTTCTAG_LTGcore_CT_RTGcore_AA] (site ATGCTTTCTAG) (LTG core: CT, RTG core: AA) | 0.103

Row | Sequence | recombinant barcode read abundance (log10)
23 | ATGCTTTTCTGGGTTCTAACCTGTTGCCTAG [ATGCTTTCTAG_LTGcore_TC_RTGcore_CT] (site ATGCTTTCTAG) (LTG core: TC, RTG core: CT) | 0.439
24 | ATGCTTTTCTGGGTTCTAACCTGTTGCCTGA [ATGCTTTCTAG_LTGcore_TC_RTGcore_TC] (site ATGCTTTCTAG) (LTG core: TC, RTG core: TC) | 0.187
25 | ATGCTTTTTTGGGTTCTAACCTGTTGCCTAG [ATGCTTTCTAG_LTGcore_TT_RTGcore_CT] (site ATGCTTTCTAG) (LTG core: TT, RTG core: CT) | 0.239
26 | ATGTCCCAATGGGTTCTAACCTGTTGCTCAG [ATGTCCCCTGA_LTGcore_AA_RTGcore_CT] (site ATGTCCCCTGA) (LTG core: AA, RTG core: CT) | 0.274
27 | ATGTCCCCTTGGGTTCTAACCTGTTGCTCAA [ATGTCCCCTGA_LTGcore_CT_RTGcore_TT] (site ATGTCCCCTGA) (LTG core: CT, RTG core: TT) | 0.0803
28 | ATGTCCCCTTGGGTTCTAACCTGTTGCTCAG [ATGTCCCCTGA_LTGcore_CT_RTGcore_CT] (site ATGTCCCCTGA) (LTG core: CT, RTG core: CT) | 1.46
29 | ATGTCCCCTTGGGTTCTAACCTGTTGCTCCC [ATGTCCCCTGA_LTGcore_CT_RTGcore_GG] (site ATGTCCCCTGA) (LTG core: CT, RTG core: GG) | 0.175
30 | ATGTCCCCTTGGGTTCTAACCTGTTGCTCGA [ATGTCCCCTGA_LTGcore_CT_RTGcore_TC] (site ATGTCCCCTGA) (LTG core: CT, RTG core: TC) | 0.0646
31 | ATGTCCCCTTGGGTTCTAACCTGTTGCTCTT [ATGTCCCCTGA_LTGcore_CT_RTGcore_AA] (site ATGTCCCCTGA) (LTG core: CT, RTG core: AA) | 0.0454
32 | ATGTCCCGATGGGTTCTAACCTGTTGCTCTC [ATGTCCCCTGA_LTGcore_GA_RTGcore_GA] (site ATGTCCCCTGA) (LTG core: GA, RTG core: GA) | 0.0444
33 | CATATTACGTGGGTTCTAACCTGTTGCCTAG [CATATTACTAG_LTGcore_CG_RTGcore_CT] (site CATATTACTAG) (LTG core: CG, RTG core: CT) | 0.0547
34 | CATATTACTTGGGTTCTAACCTGTTGCCTAA [CATATTACTAG_LTGcore_CT_RTGcore_TT] (site CATATTACTAG) (LTG core: CT, RTG core: TT) | 0.105
35 | CATATTACTTGGGTTCTAACCTGTTGCCTCA [CATATTACTAG_LTGcore_CT_RTGcore_TG] (site CATATTACTAG) (LTG core: CT, RTG core: TG) | 0.0517
36 | CATATTACTTGGGTTCTAACCTGTTGCCTCT [CATATTACTAG_LTGcore_CT_RTGcore_AG] (site CATATTACTAG) (LTG core: CT, RTG core: AG) | 0.0539
37 | CATATTACTTGGGTTCTAACCTGTTGCCTTC [CATATTACTAG_LTGcore_CT_RTGcore_GA] (site CATATTACTAG) (LTG core: CT, RTG core: GA) | 0.084
38 | CATATTACTTGGGTTCTAACCTGTTGCCTTT [CATATTACTAG_LTGcore_CT_RTGcore_AA] (site CATATTACTAG) (LTG core: CT, RTG core: AA) | 0.0756
39 | CATATTAGGTGGGTTCTAACCTGTTGCCTCC [CATATTACTAG_LTGcore_GG_RTGcore_GG] (site CATATTACTAG) (LTG core: GG, RTG core: GG) | 0.117
40 | CATATTATATGGGTTCTAACCTGTTGCCTAG [CATATTACTAG_LTGcore_TA_RTGcore_CT] (site CATATTACTAG) (LTG core: TA, RTG core: CT) | 0.0615
41 | CATATTATCTGGGTTCTAACCTGTTGCCTAG [CATATTACTAG_LTGcore_TC_RTGcore_CT] (site CATATTACTAG) (LTG core: TC, RTG core: CT) | 0.127
42 | CATATTATTTGGGTTCTAACCTGTTGCCTAA [CATATTACTAG_LTGcore_TT_RTGcore_TT] (site CATATTACTAG) (LTG core: TT, RTG core: TT) | 0.0172
43 | CATATTATTTGGGTTCTAACCTGTTGCCTAG [CATATTACTAG_LTGcore_TT_RTGcore_CT] (site CATATTACTAG) (LTG core: TT, RTG core: CT) | 0
44 | CGAGCCCAGTGGGTTCTAACCTGTTGCTGCT [CGAGCCCCTCA_LTGcore_AG_RTGcore_AG] (site CGAGCCCCTCA) (LTG core: AG, RTG core: AG) | 0.189
